Reference: the kinase profiling compilation of Christmann-Franck et al. (2016)
Several values for one entry are separate records, joined by “and”; a condition that tells them apart may be missing. Equal values may be shown once.

Experiments:
Assay in all cases: Caliper, Mobility shift assay off-chip
SYK (human) = SYK (human) (UniProt P43405)
NEK4 (human) = NEK4 (human) (UniProt P51957)
LYN (human) = LYN (human) (UniProt P07948)
CDK3 (human) = CDK3 (human) (UniProt Q00526)
DCLK2 (human) = DCLK2 (human) (UniProt Q8N568)
LTK (human) = LTK (human) (UniProt P29376)
PBK (human) = PBK (human) (UniProt Q96KB5)
CSNK1D (human) = CSNK1D (human) (UniProt P48730)
TXK (human) = TXK (human) (UniProt P42681)
SIK2 (human) = SIK2 (human) (UniProt Q9H0K1)
NEK2 (human) = NEK2 (human) (UniProt P51955)
JAK2 JH1 JH2 (human) = JAK2 JH1 JH2 (human) (UniProt O60674)
CLK2 (human) = CLK2 (human) (UniProt P49760)
HIPK1 (human) = HIPK1 (human) (UniProt Q86Z02)
CSNK1G2 (human) = CSNK1G2 (human) (UniProt P78368)
CSNK2A2 (human) = CSNK2A2 (human) (UniProt P19784)
CDK6 (human) = CDK6 (human) (UniProt Q00534)
SGK3 (human) = SGK3 (human) (UniProt Q96BR1)
IKBKE (human) = IKBKE (human) (UniProt Q14164)
PTK2 (human) = PTK2 (human) (UniProt Q05397)
DDR2 (human) = DDR2 (human) (UniProt Q16832)
TNK2 (human) = TNK2 (human) (UniProt Q07912)
EPHA7 (human) = EPHA7 (human) (UniProt Q15375)
CSNK2A1 (human) = CSNK2A1 (human) (UniProt P68400)
MUSK (human) = MUSK (human) (UniProt O15146)
HIPK4 (human) = HIPK4 (human) (UniProt Q8NE63)
PTK6 (human) = PTK6 (human) (UniProt Q13882)
NEK9 (human) = NEK9 (human) (UniProt Q8TD19)
RPS6KA4 KD1 KD2 (human) = RPS6KA4 KD1 KD2 (human) (UniProt O75676)
RPS6KA5 KD1 KD2 (human) = RPS6KA5 KD1 KD2 (human) (UniProt O75582)
PIK3CA PIK3R1 (human) = PIK3CA PIK3R1 (human) (UniProt P27986+P42336)
PRKCZ (human) = PRKCZ (human) (UniProt Q05513)
FLT4 (human) = FLT4 (human) (UniProt P35916)
CSF1R (human) = CSF1R (human) (UniProt P07333)

Sequence of RPS6KA5 KD1 KD2 (human) (O75582 whole entry, looked up): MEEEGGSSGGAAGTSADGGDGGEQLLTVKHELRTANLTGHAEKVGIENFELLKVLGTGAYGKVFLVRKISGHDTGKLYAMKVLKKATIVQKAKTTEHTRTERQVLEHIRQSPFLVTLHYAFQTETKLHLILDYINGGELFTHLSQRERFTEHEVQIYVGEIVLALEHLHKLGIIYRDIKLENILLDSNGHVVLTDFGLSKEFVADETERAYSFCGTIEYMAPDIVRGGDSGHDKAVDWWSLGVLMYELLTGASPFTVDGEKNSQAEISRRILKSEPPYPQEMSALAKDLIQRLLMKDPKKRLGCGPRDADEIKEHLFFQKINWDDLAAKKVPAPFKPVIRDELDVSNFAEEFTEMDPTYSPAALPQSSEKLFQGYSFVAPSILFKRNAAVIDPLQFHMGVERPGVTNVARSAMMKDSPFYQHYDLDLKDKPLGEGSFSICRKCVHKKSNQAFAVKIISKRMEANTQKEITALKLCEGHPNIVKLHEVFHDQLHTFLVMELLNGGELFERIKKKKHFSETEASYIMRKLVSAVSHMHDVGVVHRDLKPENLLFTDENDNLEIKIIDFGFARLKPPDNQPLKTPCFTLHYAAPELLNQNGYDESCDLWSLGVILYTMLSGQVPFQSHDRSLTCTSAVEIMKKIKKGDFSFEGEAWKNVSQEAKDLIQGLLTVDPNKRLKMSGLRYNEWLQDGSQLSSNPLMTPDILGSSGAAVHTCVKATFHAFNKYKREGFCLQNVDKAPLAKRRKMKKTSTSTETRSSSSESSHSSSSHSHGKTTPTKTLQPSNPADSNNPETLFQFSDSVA
Sequence of PTK6 (human) (Q13882 whole entry, looked up): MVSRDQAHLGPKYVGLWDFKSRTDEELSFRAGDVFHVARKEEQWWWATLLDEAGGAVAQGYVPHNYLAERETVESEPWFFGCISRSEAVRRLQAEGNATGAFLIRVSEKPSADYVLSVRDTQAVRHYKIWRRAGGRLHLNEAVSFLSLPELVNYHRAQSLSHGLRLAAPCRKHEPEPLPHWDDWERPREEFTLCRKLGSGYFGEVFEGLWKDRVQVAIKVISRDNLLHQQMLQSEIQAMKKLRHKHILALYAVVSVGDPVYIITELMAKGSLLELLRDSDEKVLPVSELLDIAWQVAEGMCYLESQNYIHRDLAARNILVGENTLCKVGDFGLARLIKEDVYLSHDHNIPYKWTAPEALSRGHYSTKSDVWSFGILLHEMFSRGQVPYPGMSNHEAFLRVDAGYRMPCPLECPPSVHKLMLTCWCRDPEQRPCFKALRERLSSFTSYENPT
Sequence of JAK2 JH1 JH2 (human) (O60674 whole entry, looked up): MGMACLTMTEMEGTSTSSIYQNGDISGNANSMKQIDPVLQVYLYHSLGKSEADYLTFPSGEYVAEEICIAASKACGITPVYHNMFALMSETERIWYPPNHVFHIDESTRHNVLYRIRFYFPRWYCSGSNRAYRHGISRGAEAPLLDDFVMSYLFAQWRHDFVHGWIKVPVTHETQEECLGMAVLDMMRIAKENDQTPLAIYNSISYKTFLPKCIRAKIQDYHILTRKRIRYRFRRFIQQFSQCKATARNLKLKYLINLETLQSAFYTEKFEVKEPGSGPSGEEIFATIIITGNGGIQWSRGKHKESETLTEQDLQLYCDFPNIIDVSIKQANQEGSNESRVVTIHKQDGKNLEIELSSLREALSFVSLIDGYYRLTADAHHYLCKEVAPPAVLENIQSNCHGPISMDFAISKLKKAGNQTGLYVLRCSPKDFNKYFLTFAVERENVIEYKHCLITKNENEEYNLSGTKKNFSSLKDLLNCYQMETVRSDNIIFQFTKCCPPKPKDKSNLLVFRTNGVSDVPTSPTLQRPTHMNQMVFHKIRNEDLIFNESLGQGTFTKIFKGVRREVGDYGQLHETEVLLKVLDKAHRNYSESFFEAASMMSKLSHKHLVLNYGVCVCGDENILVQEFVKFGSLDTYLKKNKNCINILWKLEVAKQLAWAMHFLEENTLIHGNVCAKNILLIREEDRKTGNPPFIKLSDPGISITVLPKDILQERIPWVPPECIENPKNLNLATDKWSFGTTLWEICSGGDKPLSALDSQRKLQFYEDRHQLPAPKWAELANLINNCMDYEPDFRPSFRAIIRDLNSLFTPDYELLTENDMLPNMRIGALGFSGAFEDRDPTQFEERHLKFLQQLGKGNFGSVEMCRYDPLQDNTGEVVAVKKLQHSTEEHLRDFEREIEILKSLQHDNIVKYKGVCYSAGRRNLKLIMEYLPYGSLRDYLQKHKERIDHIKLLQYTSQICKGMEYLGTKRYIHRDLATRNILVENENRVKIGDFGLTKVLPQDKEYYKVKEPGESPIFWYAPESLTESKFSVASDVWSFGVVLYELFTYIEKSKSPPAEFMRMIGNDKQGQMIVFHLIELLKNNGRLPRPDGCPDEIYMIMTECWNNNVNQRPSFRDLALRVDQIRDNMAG
Sequence of DDR2 (human) (Q16832 whole entry, looked up): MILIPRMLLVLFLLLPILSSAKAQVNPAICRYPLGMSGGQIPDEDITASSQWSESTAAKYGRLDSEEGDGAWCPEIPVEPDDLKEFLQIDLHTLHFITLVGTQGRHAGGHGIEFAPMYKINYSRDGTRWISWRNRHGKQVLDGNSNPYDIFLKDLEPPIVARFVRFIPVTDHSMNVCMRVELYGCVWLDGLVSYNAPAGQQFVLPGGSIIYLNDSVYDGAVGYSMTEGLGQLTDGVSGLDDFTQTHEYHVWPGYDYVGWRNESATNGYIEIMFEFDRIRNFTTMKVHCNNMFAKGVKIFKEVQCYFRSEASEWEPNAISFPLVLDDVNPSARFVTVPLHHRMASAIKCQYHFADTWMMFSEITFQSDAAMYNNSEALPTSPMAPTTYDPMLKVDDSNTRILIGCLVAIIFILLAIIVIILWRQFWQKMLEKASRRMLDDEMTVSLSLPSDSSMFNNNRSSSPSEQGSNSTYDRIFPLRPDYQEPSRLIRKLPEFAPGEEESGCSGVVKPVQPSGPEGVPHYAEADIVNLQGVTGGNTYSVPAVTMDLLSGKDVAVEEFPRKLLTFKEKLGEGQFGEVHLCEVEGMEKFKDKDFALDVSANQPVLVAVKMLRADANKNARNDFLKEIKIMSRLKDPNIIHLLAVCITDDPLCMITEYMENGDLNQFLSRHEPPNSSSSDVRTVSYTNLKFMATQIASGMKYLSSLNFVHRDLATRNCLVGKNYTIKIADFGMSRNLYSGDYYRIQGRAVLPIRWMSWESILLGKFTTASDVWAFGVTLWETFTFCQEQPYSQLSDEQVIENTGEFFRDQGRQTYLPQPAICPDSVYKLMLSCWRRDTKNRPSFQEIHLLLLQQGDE
Sequence of MUSK (human) (O15146 whole entry, looked up): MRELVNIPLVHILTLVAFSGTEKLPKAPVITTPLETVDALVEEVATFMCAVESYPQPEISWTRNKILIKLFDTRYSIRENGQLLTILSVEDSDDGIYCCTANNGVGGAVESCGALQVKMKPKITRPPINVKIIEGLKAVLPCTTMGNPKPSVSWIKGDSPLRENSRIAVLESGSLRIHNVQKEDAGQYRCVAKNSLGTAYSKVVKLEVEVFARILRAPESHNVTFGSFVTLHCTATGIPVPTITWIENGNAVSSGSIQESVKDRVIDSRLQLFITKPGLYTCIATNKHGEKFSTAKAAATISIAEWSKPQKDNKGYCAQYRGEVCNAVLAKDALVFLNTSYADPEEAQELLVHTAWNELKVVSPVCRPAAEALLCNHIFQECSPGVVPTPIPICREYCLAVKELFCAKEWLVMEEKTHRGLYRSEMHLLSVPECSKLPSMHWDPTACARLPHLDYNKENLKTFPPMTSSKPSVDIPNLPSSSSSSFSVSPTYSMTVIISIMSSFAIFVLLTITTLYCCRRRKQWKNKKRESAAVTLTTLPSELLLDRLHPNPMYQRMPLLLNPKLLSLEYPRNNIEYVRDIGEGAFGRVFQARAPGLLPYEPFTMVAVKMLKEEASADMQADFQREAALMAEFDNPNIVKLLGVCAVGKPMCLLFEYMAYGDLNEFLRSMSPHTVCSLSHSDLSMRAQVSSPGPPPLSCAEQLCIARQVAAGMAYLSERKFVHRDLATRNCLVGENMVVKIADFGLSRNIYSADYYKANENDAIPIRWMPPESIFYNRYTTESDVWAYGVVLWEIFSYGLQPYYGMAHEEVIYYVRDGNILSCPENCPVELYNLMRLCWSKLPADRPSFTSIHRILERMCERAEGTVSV
Sequence of CSNK2A1 (human) (P68400 whole entry, looked up): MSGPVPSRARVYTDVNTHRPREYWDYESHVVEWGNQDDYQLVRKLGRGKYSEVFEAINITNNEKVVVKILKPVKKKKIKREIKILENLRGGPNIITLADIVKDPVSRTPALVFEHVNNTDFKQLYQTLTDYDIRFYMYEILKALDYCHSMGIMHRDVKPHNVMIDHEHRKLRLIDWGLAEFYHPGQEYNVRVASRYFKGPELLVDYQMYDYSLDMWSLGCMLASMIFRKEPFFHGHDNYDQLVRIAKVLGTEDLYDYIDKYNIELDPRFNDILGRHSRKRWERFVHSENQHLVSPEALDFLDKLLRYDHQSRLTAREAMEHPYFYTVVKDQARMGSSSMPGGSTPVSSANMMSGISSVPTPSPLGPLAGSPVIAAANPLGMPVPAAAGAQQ
Sequence of LYN (human) (P07948 whole entry, looked up): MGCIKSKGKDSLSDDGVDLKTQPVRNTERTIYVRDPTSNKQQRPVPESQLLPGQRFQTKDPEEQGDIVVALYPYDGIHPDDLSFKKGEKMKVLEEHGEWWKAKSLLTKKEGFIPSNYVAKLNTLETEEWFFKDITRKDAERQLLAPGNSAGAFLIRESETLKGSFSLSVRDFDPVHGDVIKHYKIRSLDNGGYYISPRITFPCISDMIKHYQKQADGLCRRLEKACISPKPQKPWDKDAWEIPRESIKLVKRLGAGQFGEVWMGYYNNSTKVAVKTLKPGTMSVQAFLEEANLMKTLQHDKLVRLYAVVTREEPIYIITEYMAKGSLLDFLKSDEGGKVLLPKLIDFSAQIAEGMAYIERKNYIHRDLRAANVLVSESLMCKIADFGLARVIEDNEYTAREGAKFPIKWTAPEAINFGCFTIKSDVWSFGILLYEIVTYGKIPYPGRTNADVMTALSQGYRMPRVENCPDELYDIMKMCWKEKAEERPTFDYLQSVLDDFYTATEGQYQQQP

## Cc1ccc(Nc2nccc(N(C)c3ccc4c(C)n(C)nc4c3)n2)cc1S(N)(=O)=O
SYK (human); compound 0.02 µM
  inhibition: 4.4%
SYK (human); compound 0.2 µM
  inhibition: -4.7%
NEK4 (human); compound 0.02 µM
  inhibition: -3.5%
NEK4 (human); compound 0.2 µM
  inhibition: -0.8%
LYN (human); compound 0.02 µM
  inhibition: 16.6% and 20.8%
LYN (human); compound 0.2 µM
  inhibition: 62.4% and 63.7%
CDK3 (human); compound 0.02 µM
  inhibition: -2.4%
CDK3 (human); compound 0.2 µM
  inhibition: -4.3%
DCLK2 (human); compound 0.02 µM
  inhibition: -1.2%
DCLK2 (human); compound 0.2 µM
  inhibition: -0.9%
LTK (human); compound 0.02 µM
  inhibition: 5.1%
LTK (human); compound 0.2 µM
  inhibition: 11.9%
PBK (human); compound 0.02 µM
  inhibition: -3.9%
PBK (human); compound 0.2 µM
  inhibition: -9.3%
CSNK1D (human); compound 0.02 µM
  inhibition: -1.8% and -2.9%
CSNK1D (human); compound 0.2 µM
  inhibition: -2.9% and -3.3%
TXK (human); compound 0.02 µM
  inhibition: 3.3%
TXK (human); compound 0.2 µM
  inhibition: 27.4%
SIK2 (human); compound 0.02 µM
  inhibition: 1.3%
SIK2 (human); compound 0.2 µM
  inhibition: 5.7%
NEK2 (human); compound 0.02 µM
  inhibition: 5.4%
NEK2 (human); compound 0.2 µM
  inhibition: 12%
JAK2 JH1 JH2 (human); compound 0.02 µM
  inhibition: 4.8%
JAK2 JH1 JH2 (human); compound 0.2 µM
  inhibition: 11.4%
CLK2 (human); compound 0.02 µM
  inhibition: 6.2%
CLK2 (human); compound 0.2 µM
  inhibition: 7.2%
HIPK1 (human); compound 0.02 µM
  inhibition: 2.6%
HIPK1 (human); compound 0.2 µM
  inhibition: 7.3%
CSNK1G2 (human); compound 0.02 µM
  inhibition: 1.7%
CSNK1G2 (human); compound 0.2 µM
  inhibition: 0.3%
CSNK2A2 (human); compound 0.02 µM
  inhibition: -2.8%
CSNK2A2 (human); compound 0.2 µM
  inhibition: -1.4%
CDK6 (human); compound 0.02 µM
  inhibition: 6.2%
CDK6 (human); compound 0.2 µM
  inhibition: 8.2%
SGK3 (human); compound 0.02 µM
  inhibition: -0.2%
SGK3 (human); compound 0.2 µM
  inhibition: -2.7%
IKBKE (human); compound 0.02 µM
  inhibition: -3.4%
IKBKE (human); compound 0.2 µM
  inhibition: -7.1%
PTK2 (human); compound 0.02 µM
  inhibition: -2%
PTK2 (human); compound 0.2 µM
  inhibition: 8.3%
DDR2 (human); compound 0.02 µM
  inhibition: 34.2%
DDR2 (human); compound 0.2 µM
  inhibition: 85%
TNK2 (human); compound 0.02 µM
  inhibition: -5.7%
TNK2 (human); compound 0.2 µM
  inhibition: -3.6%
EPHA7 (human); compound 0.02 µM
  inhibition: 0.1%
EPHA7 (human); compound 0.2 µM
  inhibition: 1.7%
CSNK2A1 (human); compound 0.02 µM
  inhibition: -3%
CSNK2A1 (human); compound 0.2 µM
  inhibition: -2.4%
MUSK (human); compound 0.02 µM
  inhibition: -1.6%
MUSK (human); compound 0.2 µM
  inhibition: 0.7%
HIPK4 (human); compound 0.02 µM
  inhibition: 6.8%
HIPK4 (human); compound 0.2 µM
  inhibition: 12.3%
PTK6 (human); compound 0.02 µM
  inhibition: 2.5%
PTK6 (human); compound 0.2 µM
  inhibition: 26.2%
NEK9 (human); compound 0.02 µM
  inhibition: -3.7%
NEK9 (human); compound 0.2 µM
  inhibition: 1.4%
RPS6KA4 KD1 KD2 (human); compound 0.02 µM
  inhibition: -2.4%
RPS6KA4 KD1 KD2 (human); compound 0.2 µM
  inhibition: 3.7%
RPS6KA5 KD1 KD2 (human); compound 0.02 µM
  inhibition: -4.7%
PIK3CA PIK3R1 (human); compound 0.02 µM
  inhibition: 64.2%
PIK3CA PIK3R1 (human); compound 0.2 µM
  inhibition: 68.1%
PRKCZ (human); compound 0.02 µM
  inhibition: 2.5%
PRKCZ (human); compound 0.2 µM
  inhibition: -1.1%

## CNC(=O)c1ccccc1Sc1ccc2c(/C=C/c3ccccn3)n[nH]c2c1
SYK (human); compound 0.001 µM
  inhibition: -9.8%
SYK (human); compound 0.02 µM
  inhibition: -8.9%
NEK4 (human); compound 0.001 µM
  inhibition: -5.5%
NEK4 (human); compound 0.02 µM
  inhibition: -4.4%
LYN (human); compound 0.001 µM
  inhibition: -2.2% and 4.1%
LYN (human); compound 0.02 µM
  inhibition: 16% and 9.7%
FLT4 (human); compound 0.001 µM
  inhibition: 21.2%
FLT4 (human); compound 0.02 µM
  inhibition: 86.7%
CDK3 (human); compound 0.001 µM
  inhibition: -4.2%
CDK3 (human); compound 0.02 µM
  inhibition: -4.8%
DCLK2 (human); compound 0.001 µM
  inhibition: -2.7%
DCLK2 (human); compound 0.02 µM
  inhibition: -2.1%
LTK (human); compound 0.001 µM
  inhibition: 2.1%
LTK (human); compound 0.02 µM
  inhibition: 0.9%
PBK (human); compound 0.001 µM
  inhibition: -7.6%
PBK (human); compound 0.02 µM
  inhibition: -7.4%
CSNK1D (human); compound 0.001 µM
  inhibition: -5.3% and -6.3%
CSNK1D (human); compound 0.02 µM
  inhibition: -5.2% and -5.3%
TXK (human); compound 0.001 µM
  inhibition: -4%
TXK (human); compound 0.02 µM
  inhibition: -3.9%
SIK2 (human); compound 0.001 µM
  inhibition: 0.7%
SIK2 (human); compound 0.02 µM
  inhibition: -1.6%
NEK2 (human); compound 0.001 µM
  inhibition: 5.7%
NEK2 (human); compound 0.02 µM
  inhibition: 4.7%
JAK2 JH1 JH2 (human); compound 0.001 µM
  inhibition: 2.5%
JAK2 JH1 JH2 (human); compound 0.02 µM
  inhibition: 4.7%
CLK2 (human); compound 0.001 µM
  inhibition: -3.8%
CLK2 (human); compound 0.02 µM
  inhibition: 5.8%
HIPK1 (human); compound 0.001 µM
  inhibition: -4.9%
HIPK1 (human); compound 0.02 µM
  inhibition: -0.2%
CSNK1G2 (human); compound 0.001 µM
  inhibition: -2.9%
CSNK1G2 (human); compound 0.02 µM
  inhibition: -1.6%
CSF1R (human); compound 0.001 µM
  inhibition: 13.2%
CSF1R (human); compound 0.02 µM
  inhibition: 22.8%
CSNK2A2 (human); compound 0.001 µM
  inhibition: -3.1%
CSNK2A2 (human); compound 0.02 µM
  inhibition: -5.6%
CDK6 (human); compound 0.001 µM
  inhibition: 3.5%
CDK6 (human); compound 0.02 µM
  inhibition: 4.4%
SGK3 (human); compound 0.001 µM
  inhibition: 13.9%
SGK3 (human); compound 0.02 µM
  inhibition: 0.8%
IKBKE (human); compound 0.001 µM
  inhibition: -6.5%
IKBKE (human); compound 0.02 µM
  inhibition: -5.1%
PTK2 (human); compound 0.001 µM
  inhibition: -7.1%
PTK2 (human); compound 0.02 µM
  inhibition: -5.9%
DDR2 (human); compound 0.001 µM
  inhibition: -1.6%
DDR2 (human); compound 0.02 µM
  inhibition: 2.2%
TNK2 (human); compound 0.001 µM
  inhibition: -7.8%
TNK2 (human); compound 0.02 µM
  inhibition: -8.8%
EPHA7 (human); compound 0.001 µM
  inhibition: -3.2%
EPHA7 (human); compound 0.02 µM
  inhibition: -0.8%
CSNK2A1 (human); compound 0.001 µM
  inhibition: -3.2%
CSNK2A1 (human); compound 0.02 µM
  inhibition: -4.4%
MUSK (human); compound 0.001 µM
  inhibition: -3.1%
MUSK (human); compound 0.02 µM
  inhibition: 4.8%
HIPK4 (human); compound 0.001 µM
  inhibition: -3.1%
HIPK4 (human); compound 0.02 µM
  inhibition: 1.9%
PTK6 (human); compound 0.001 µM
  inhibition: -6%
PTK6 (human); compound 0.02 µM
  inhibition: -4.8%
NEK9 (human); compound 0.001 µM
  inhibition: -5.6%
NEK9 (human); compound 0.02 µM
  inhibition: -3.7%
RPS6KA4 KD1 KD2 (human); compound 0.001 µM
  inhibition: -7.2%
RPS6KA4 KD1 KD2 (human); compound 0.02 µM
  inhibition: -1.1%
RPS6KA5 KD1 KD2 (human); compound 0.001 µM
  inhibition: -6.2%
RPS6KA5 KD1 KD2 (human); compound 0.02 µM
  inhibition: -7.1%
PIK3CA PIK3R1 (human); compound 0.001 µM
  inhibition: 40.8%
PIK3CA PIK3R1 (human); compound 0.02 µM
  inhibition: 40.7%
PRKCZ (human); compound 0.001 µM
  inhibition: 12%
PRKCZ (human); compound 0.02 µM
  inhibition: -4.6%
